Test results reported in patent US12344614B2, “Benzodiazepine derivatives as GABA a GAMMA1 PAM” (Hoffmann-La Roche Inc., priority 2021, dated 2025).
Where two headings read alike, the source gives them in different places.

Assays:
[1] = target: human GABAA α5β2γ1 receptor (Homo sapiens (Human), UniProt P31644+Q8N1C3); assay: Radioligand binding assay, competition for [3H]RO7239181, membranes from HEK293F cells
Protocol: The affinity of compounds at GABAA γ1 subunit-containing receptors was measured by competition for [^3H]RO7239181 (67.3 Ci/mmol; Roche) binding to membranes from HEK293F cells (ThermoFisher R79007) expressing human (transiently transfected) receptors of composition α5β2γ1, α2β2γ1, α1β2γ1. For better protein expression of the α2 subunit-containing receptors, the 28 amino acid long signal peptide (Met1 to Ala28) of the human GABAA α2 subunit was substituted by the 31 amino acid long signal peptide (Met1 to Ser31) of human GABAA α5 subunit.
(§1) Harvested pellets from HEK293F cells expressing the different GABAA receptor subtypes were resuspended in Mannitol Buffer pH 7.2-7.4 (Mannitol 0.29M, Triethylamine 10 mM, Acetic acid 10 mM, EDTA 1 mM plus protease inhibitors (20 tablets Complete, Roche Diagnostics Cat. No. 05 056 489 001 per liter)), washed two times and then resuspended at 1:10 to 1:15 dilution in the same buffer. Cell disruption was performed by stirring the suspension in a Parr vessel #4637 at 435 psi for 15 minutes, and then the suspensions were centrifuged at 1000×g for 15 minutes at 4° C. (Beckman Avanti J-HC; rotor JS-4.2). The supernatant (S1) was transferred in a 21 Schott flask and the pellet (P1) was resuspended with Mannitol Buffer up to 175 ml. The resuspended pellet was transferred into a 250 ml Corning centrifugal beaker and centrifuged at 1500×g for 10 minutes at 4° C. (Beckman Avanti J-HC; rotor JS-4.2). The supernatant (S1) was then transferred in the 21 Schott flask and the pellet was discarded. The supernatants (S1) were centrifuged in 500 ml Beckman polypropylene centrifugal beaker at 15′000×g for 30 minutes at 4° C. (Beckman Avanti J-20 XP; rotor JLA-10.500). The pellet (P2) was resuspended with Mannitol Buffer 1:1 and frozen at −80° C. The supernatant (S2) was centrifuged in 100 ml Beckman polypropylene centrifugal tubes at 48000×g for 50 minutes at 4° C. (Beckman Avanti J-20 XP; rotor JA-18). The supernatant (S3) was discarded and the pellet (P3) was resuspended with 1:1 Mannitol Buffer. The P2 and P3 protein concentration was determined with the BIORAD Standard assay method with bovine serum albumin as standard and measured on the NANO-Drop 1000. The membrane suspension was aliquots (500 μl per tube) and stored at −80° C. until required.
(§2) Membrane homogenates were resuspended and polytronised (Polytron PT1200E Kinematica AG) in Potassium Phosphate 10 mM, KCl 100 mM binding buffer at pH 7.4 to a final assay concentration determined with a previous experiment.
Radioligand binding assays were carried out in a volume of 200 μL (96-well plates) which contained 100 μL of cell membranes, [^3H]RO7239181 at a concentration of 1.5 nM (α5β2γ1) or 20-30 nM (α1β2γ1, α2β2γ1) and the test compound in the range of [0.3-10000]×10^−9 M. Nonspecific binding was defined by 10×10^−6 (α5β2γ1) and 30×10^−6 M RO7239181 and typically represented less than 5% (α5β2γ1) and less than 20% (α1β2γ1, α2β2γ1) of the total binding. Assays were incubated to equilibrium for 1 hour at 4° C. and then, membranes were filtered onto unifilter (96-well white microplate with bonded GF/C filters preincubated 20-50 minutes in 0.3% Polyethylenimine) with a Filtermate 196 harvester (Packard BioScience) and washed 4 times with cold Potassium Phosphate 10 mM pH 7.4, KCl 100 mM binding buffer. After anhydrousing, filter-retained radioactivity was detected by liquid scintillation counting. Ki values were calculated using Excel-Fit (Microsoft) and are the means of two determinations.
Representative test results, obtained by the above described assay measuring binding affinity to HEK293 cells expressing human (h) receptors, are shown in the Table 1.

[2] = target: human GABAA α2β2γ1 receptor (Homo sapiens (Human), UniProt P47869+Q8N1C3); assay: as above
Protocol: The affinity of compounds at GABAA γ1 subunit-containing receptors was measured by competition for [^3H]RO7239181 (67.3 Ci/mmol; Roche) binding to membranes from HEK293F cells (ThermoFisher R79007) expressing human (transiently transfected) receptors of composition α5β2γ1, α2β2γ1, α1β2γ1.
as §1, §2
Assays were incubated to equilibrium for 1 hour at 4° C. and then, membranes were filtered onto unifilter (96-well white microplate with bonded GF/C filters preincubated 20-50 minutes in 0.3% Polyethylenimine) with a Filtermate 196 harvester (Packard BioScience) and washed 4 times with cold Potassium Phosphate 10 mM pH 7.4, KCl 100 mM binding buffer. After anhydrousing, filter-retained radioactivity was detected by liquid scintillation counting. Ki values were calculated using Excel-Fit (Microsoft) and are the means of two determinations.

[3] = target: human GABAA α1β3γ2 receptor (Homo sapiens (Human), UniProt P14867+P18507); assay: Radioligand binding assay, competition for [3H]Flumazenil, HEK293F cells; details: for LogSel: Log[Ki α1β3γ2 (nM)/Ki α2β2γ1 (nM)]; for γ2/γ1 Selectivity Ratio: Ki α1β3γ2 (nM)/Ki α2β2γ1 (nM)
Protocol: The affinity of compounds at GABAA γ2 subunit-containing receptors was measured by competition for [^3H]Flumazenil (81.1 Ci/mmol; Roche) binding to HEK293F cells expressing human (transiently transfected) receptors of composition α1β3γ2.
Harvested pellets from HEK293F cells expressing the different GABAA γ2 receptor subtypes were resuspended in Mannitol Buffer pH 7.2-7.4 and processed as described above for the cells expressing the GABAA γ1 subunit-containing receptors.
Assays were incubated to equilibrium for 1 hour at 4° C. and harvested onto GF/C uni-filters (Packard) by filtration using a Packard harvester and washing with ice-cold wash buffer (50 mM Tris; pH 7.5). After anhydrousing, filter-retained radioactivity was detected by liquid scintillation counting. Ki values were calculated using Excel-Fit (Microsoft) and are the means of two determinations.

[4] = read-out: Ki h-GABAA α2β2γ1, [3H]RO7239181 20-30 nM, HEK293F membranes, 1 hour at 4° C., mean of two determinations

Compound | Ki [1] [nM] | Ki [2] [nM] | Ki [2, 4] [nM] | Ki [3] [nM] | LogSel [3] | Ki ([3]; read-out: Ki h-GABAA α1β3γ2, [3H]Flumazenil 1 nM, HEK293F membranes, 1 hour at 4° C., mean of two determinations) [nM] | γ2/γ1 Selectivity Ratio [3]
CN1C(=O)CN=C(c2cc(O)ccc2F)c2c1ccc(Cl)c2Cl [Example 1, 6,7-dichloro-5-(2-fluoro-5-hydroxy-phenyl)-1-methyl-3H-1,4-benzodiazepin-2-one] | 0.34 | 2.27 | 2.27 | 28.7 | 1.1 | 28.7 | 
Cc1nnc2n1-c1ccc(C(F)(F)F)c(Cl)c1C(c1nc(O)ccc1F)=N[C@H]2C [Example 20, 6-[(4S)-7-chloro-1,4-dimethyl-8-(trifluoromethyl)-4H-[1,2,4]triazolo[4,3-a][1,4]benzodiazepin-6-yl]-5-fluoro-pyridin-2-ol] | 5.02 | 40.1 | 40.1 | 11200 | 2.45 |  | 279.6
O=c1ccn2c(n1)CN=C(c1cc(O)ccc1F)c1c-2ccc(Cl)c1Cl [Example 6, 8,9-dichloro-7-(2-fluoro-5-hydroxy-phenyl)-5H-pyrimido[1,2-a][1,4]benzodiazepin-3-one] | 0.39 | 2.18 | 2.18 | 46.7 | 1.33 |  | 21.4
CN1C(=O)CN=C(c2cc(O)ccc2F)c2c1ccc(C(F)(F)F)c2Cl [Example 8, 6-chloro-5-(2-fluoro-5-hydroxy-phenyl)-1-methyl-7-(trifluoromethyl)-3H-1,4-benzodiazepin-2-one] | 0.44 | 2.35 | 2.35 | 80.9 | 1.54 |  | 34.4
C[C@@H]1N=C(c2c(F)ccc(O)c2F)c2c(ccc(Cl)c2Cl)-n2ccc(=O)nc21 [Example 18, (5S)-8,9-dichloro-7-(2,6-difluoro-3-hydroxy-phenyl)-5-methyl-5H-pyrimido[1,2-a][1,4]benzodiazepin-3-one] | 1.3 | 6.6 | 6.6 | 255 | 1.59 |  | 38.7
COC1CN(C(=O)c2nc3n(n2)-c2ccc(C(F)(F)F)c(Cl)c2C(c2cc(O)ccc2F)=NC3)C1 [Example 16, [7-chloro-6-(2-fluoro-5-hydroxy-phenyl)-8-(trifluoromethyl)-4H-[1,2,4]triazolo[1,5-a][1,4]benzodiazepin-2-yl]-(3-methoxyazetidin-1-yl)methanone] | 1.04 | 3.6 | 3.6 | 164 | 1.66 |  | 45.6
Cc1nnc2n1-c1ccc(Cl)c(Cl)c1C(c1c(F)ccc(O)c1F)=NC2 [Example 13, 3-(7,8-dichloro-1-methyl-4H-[1,2,4]triazolo[4,3-a][1,4]benzodiazepin-6-yl)-2,4-difluoro-phenol] | 0.4 | 3.85 | 3.85 | 72.6 | 1.28 |  | 18.8
Cc1cnc2n1-c1ccc(C(F)(F)F)c(Cl)c1C(c1nc(O)ccc1Cl)=N[C@H]2C [Example 26, 5-chloro-6-[(4S)-7-chloro-1,4-dimethyl-8-(trifluoromethyl)-4H-imidazo[1,2-a][1,4]benzodiazepin-6-yl]pyridin-2-ol] | 3.25 | 7.88 | 7.88 | 6730 | 2.93 |  | 853.7
Cc1nnc2n1-c1ccc(Cl)c(Cl)c1C(c1cc(O)ccc1F)=N[C@H]2C [Example 4, 4-fluoro-3-[(4S)-7,8-dichloro-1,4-dimethyl-4H-[1,2,4]triazolo[4,3-a][1,4]benzodiazepin-6-yl]phenol] | 0.38 | 1.99 | 1.99 | 81.7 | 1.61 |  | 41.1
COC1CN(C(=O)c2ncn3c2CN=C(c2cc(O)ccc2F)c2c-3ccc(C(F)(F)F)c2Cl)C1 [Example 15, [7-chloro-6-(2-fluoro-5-hydroxy-phenyl)-8-(trifluoromethyl)-4H-imidazo[1,5-a][1,4]benzodiazepin-3-yl]-(3-methoxyazetidin-1-yl)methanone] | 0.85 | 4.18 | 4.18 | 121 | 1.46 |  | 28.9
Cc1nnc2n1-c1ccc(C(F)(F)F)c(Cl)c1C(c1nc(O)ccc1Cl)=N[C@H]2C [Example 22, 5-chloro-6-[(4S)-7-chloro-1,4-dimethyl-8-(trifluoromethyl)-4H-[1,2,4]triazolo[4,3-a][1,4]benzodiazepin-6-yl]pyridin-2-ol] | 20.9 | 13.7 | 13.7 | 9690 | 2.85 |  | 704.8
COC1CN(C(=O)c2nc3n(n2)-c2ccc(Cl)c(Cl)c2C(c2cc(O)ccc2F)=NC3)C1 [Example 7, [7,8-dichloro-6-(2-fluoro-5-hydroxy-phenyl)-4H-[1,2,4]triazolo[1,5-a][1,4]benzodiazepin-2-yl]-(3-methoxyazetidin-1-yl)methanone] | 1.4 | 2.22 | 2.22 | 34.6 | 1.19 |  | 15.6
Cc1nnc2n1-c1ccc(C(F)(F)F)c(Cl)c1C(c1cc(O)ccc1F)=NC2 [Example 9, 3-[7-chloro-1-methyl-8-(trifluoromethyl)-4H-[1,2,4]triazolo[4,3-a][1,4]benzodiazepin-6-yl]-4-fluoro-phenol] | 0.86 | 3.25 | 3.25 | 106 | 1.51 |  | 32.6
